ChEMBL document CHEMBL1149842, “Purine alkaloids from the South China Sea gorgonian Subergorgia suberosa” (J Nat Prod, 2008)
In brackets after ≈: the same amount, converted by molar mass.

Tested on: MDA-MB-231
Assay: Cytotoxicity against human MDA-MB-231 cells by MTT assay
Assay type: functional, cell-based

C[C@H]1CC[C@H]2[C@@H]3CC(=O)[C@H](Cn4c(O)nc5c(O)ncnc54)[C@@]13CC2(C)C
IC50: 8.87 µg/mL (≈ 23.9 µM)
